Columns and labels:
[1] = format: physicochemical
Protocol: (§1) Various cosmetic compositions in the form of nail varnish of the organic-solvent-based varnish type were prepared and applied to nails. The tests hereinafter were performed on these varnishes: • Gloss: 100 μm of varnish was applied to a Leneta-type panel. After drying, the gloss was measured at an angle of incidence of 60° using a Minolta 268 glossmeter. • Flexibility: An aluminum plate covered with a varnish of 300 μm wet is subjected to a slow stamping and the depth of the penetration is measured (ISO1520). • Varnish hardness: It was measured using a Persoz pendulum on a glass plate covered with a varnish with a thickness of 100 μm wet, after drying at room temperature, according to the ISO1522 standard. • Adhesion: A “cross hatch test” is carried out on a glass plate. A score of 0 corresponds to an absence of loss of adhesion. A score of 5 corresponds to a total loss of adhesion. • Solids content: Between 0.5 and 1 g of varnish is poured into a dish. […] The stability of this shade, and more specifically the appearance or not of any syneresis, is observed. • Odor: The odor of the varnish is compared to that of a varnish not containing any hardening agent. • Viscosity: The viscosity of the product is measured at 25° C. using a Brookfield viscometer. […]

[2] = Viscosity, Brookfield viscometer; format: physicochemical; details: concentrations of less than 1% by weight
Protocol: as §1

nails of the hand = assay: In vivo test of nail hardening on panels of 30 persons; design: species or system human; details: 0.05% by weight in the varnish composition, three weeks
Description: The varnish was applied under normal conditions of use (namely one application every three days, after having removed the previous varnish). Comparative composition 5 contained 0.05% of hexane, comparative composition 6 contained 0.05% by weight of citral, comparative composition 9 contained 0.05% by weight of caproic acid and composition 7 according to the present invention contained 0.05% by weight of sorbic acid. […] The respective compositions and also the results of the physical tests and observed by the panelists are collated in table 2 hereinafter.

[3] = Sedimentation stability and color fastness of tinted varnish; format: physicochemical; details: 0.1% by weight in the varnish; one month at 45° C.
Protocol: Various cosmetic compositions in the form of nail varnish of the organic-solvent-based varnish type were prepared and applied to nails. […] The color of the varnish is then compared to a reference varnish not containing any hardening agent. • Sedimentation stability: A tinted varnish composition containing pearlescent agent and a coloring solution is prepared and is placed in an oven for 1 month at 45° C. A visual observation is made to check whether the pearlescent agent has or has not sedimented out. • Shade stability: A tinted varnish containing a mixture of the following pigments: titanium dioxide, Red 34 and ferric ferrocyanide blue, is placed in an oven at 45° C. for 30 days.
firstly, a pearlescent agent: titanium oxide-coated mica sold under the name Flamenco Gold, 6-48 μm, by BASF,
and, secondly, Pigment Red 34: organic pigment sold by Sun Chemical.
This pigment was ground in order to be able to be incorporated. The grinding procedure included mixing the solvents with the pigment, stirring to deagglomerate the pigment, then incorporating the nitrocellulose. Once the latter had dissolved, the plasticizer was incorporated with stirring, which was continued for 20 minutes. […]
Titanium oxide-coated mica (Flamenco Gold, 6-48 μm, from BASF) 2% by weight The stability of the compositions thus prepared was evaluated by visual observation after storage for one month at 45° C.

With C/C=C/C=C/C(=O)O [sorbic acid] the “influence on the stability of the varnish composition” value [1] was “does not have any influence”, the “maximum amount that can be incorporated into the varnish without causing yellowing” value [1] was “less than 1 % by weight” and the “influence on the viscosity of the varnish composition” value [2] was “does not have any influence”. The “subjects who found an overall improvement in the quality and the hardness of their nails” value (nails of the hand) was “more than 83%”.
With O=P(O)(O)O [Phosphoric acid] the “discoloration of the shade” value [3] was “discolors the Pigment Red 34”.
